Reference: US6177475A, “Methods of using integrin modulators for treatment of inflammation” (priority 1997, dated 2001)

Tests used:
H9 cells = assay: Disruption of cell clusters formed by H9 cells in culture; format: cell-based; settings: Homo sapiens, 16 to 24 h
Protocol: T-lymphocytic H9 and Jurkat cells were maintained as suspension cultures in RPMI-1640 medium supplemented with 10% (v/v) heat-inactivated fetal calf serum, 50 micrograms/ml gentamycin and 2 mM L-glutamine. To assess the effects of Ajoene on adhesive interactions of the cells, H9 cells or Jurkat cells were seeded in 96-well flat-bottomed plates (3×10^5cells per well) and cultured in the presence of log 10 dilutions of Ajoene (experiment) or its vehicle (control) for 16 to 24 h.
The requirement of integrins for the formation of cell-to-cell contacts in each of these systems has long been established. It is known that in platelets the relevant integrin is GP IIb/IIIa (β3). Neutrophil aggregation is underlain by interactions of β2 integrins (e.g., LFA-1 and/or Mac-1) with their surface counterstructures, while cohesion of T-cells is supported by both β2 integrins and fibronectin-binding β1 integrins (e.g., VLA-4 and VLA-5).

LFA-1 (ICAM-1) = assay: Adhesion of TPA-activated Jurkat cells to SVT2/ICAM-1 monolayers; format: cell-based; settings: Homo sapiens, 0.75 h, SVT2/ICAM-1, TPA 125 ng/ml, 45 min
Protocol: SVT2 cells transfected with human ICAM-1 or VCAM-1 (SVT2/ICAM-1 and […], respectively) were plated into 96-well plates and cultured overnight. […] The labeled Jurkat cells were washed three times and resuspended at a density of 4×10^6 cells/ml in complete RPMI medium. Serial dilutions of Ajoene were prepared in complete RPMI medium. Aliquots of the cells (0.5 ml) were then mixed with an equal volume of Ajoene dilutions (1:1 v/v), and the mixtures incubated at 37° C. for 30 min. Thereafter, Ajoene-incubated cells were added in duplicate to SVT2/ICAM-1 and SVT2/VCAM-1 monolayers, and TPA was introduced into each well to the final concentration of 125 ng/ml. The plates were incubated at 37° C. for 45 min, after which the non-adherent cells were removed by washing with warm complete RPMI medium. The bound labeled cells were lysed by adding 1% Triton X-100 solution in 0.1 N HCl. The lysates were assayed in a gamma counter to determine the percentage of bound cells. […] Thus, coculturing of Jurkat cells with SVT2/ICAM-1 and SVT2/VCAM-1 cells makes it possible to assess, respectively, the function of IFA-1 and VLA-4 under identical conditions. In the absence of TPA, 10 and 20% of the added Jurkat cells adhered to SVT2/ICAM-1 and SVT2/VCAM-1 cells, respectively. […]

[1] = tested on: SupT1LAV-BRU cells / SupT1 cells (HIV-1LAV-BRU); assay: HIV-induced syncytium formation, SupT1LAV-BRU donor with SupT1 recipient; format: cell-based; settings: Human immunodeficiency virus 1, SUP-T1, 16 h, read-out: IC50 of Ajoene, syncytium formation
Protocol: Chronically infected and uninfected cell lines (HIV donors and targets, respectively) were maintained as suspension cultures in RPNI-1640 medium supplemented with 10% (v/v) heat-inactivated fetal calf serum, 50 micrograms/ml gentamycin and 2 mM L-glutamine. HIV donors used were (1) a cloned population of H9 cells harboring the genome of HIV-1RF (H9RF cells); and (2) a cloned population of SupT1 cells harboring the genome of HIV-1LAV-BRU (SupT1LAV-BRU cells). To assess the effect of Ajoene on syncytium formation, the donors were mixed with their respective recipients, H9 and SupT1, at a ratio of 1:2 in 96-well flat-bottomed plates (3×10^5 cells per well). Log 10 dilutions of Ajoene were then introduced into the wells, and the cells were cocultured for 16 h. Control wells received the vehicle of Ajoene. By the end of the incubation period syncytia were counted, and the values of IC50 for Ajoene were calculated by plotting relative amounts of syncytia (percent of the syncytia formed in the absence of the compound) against Ajoene concentration.

HIV-1RF = HIV-1RF replication in H9 cells (HIV antigens by solid phase immunoassay); format: cell-based; settings: Human immunodeficiency virus 1, m.o.i. 0.1, 72 h
[2] = tested on: human sperm / zona-free hamster oocytes; assay: Hamster oocyte penetration assay with capacitated human sperm; format: cell-based; settings: 200 micromoles per l; 30 min pretreatment of sperm and oocytes
Protocol: The activity of Ajoene in the hamster oocyte penetration assay was tested. This assay is routinely used to test the ability of capacitated human sperm to penetrate oocytes.
To obtain oocytes, mature hamsters (on day 1 of the estrous cycle) were injected intraperitoneally with 40 International Units (IU) pregnant mare serum gonadotropin (PMSG), followed by 40 IU human chorionic gonadotropin (HCG) 55 hours late. After 16 hours, the animals were sacrificed by intracardiac injection of 0.1 ml T61 (euthanizing agent), the oviducts were removed, and the cumulus mass was collected. Cumulus cells were removed by hyaluronidase treatment, and the freed oocytes were transferred into a watchglass containing 3 ml Biggers-Whitter-Whittingham (BWW) medium supplemented with human serum albumin (HSA) (BWW/HSA; pH 7.5). […]
Human sperm was from a donor with known fertility (No. 113). […] A small portion of the original sample was analyzed (computer-assisted sperm analysis) using the Cell-Soft package. […] The swim-up was collected (about 0.5 ml), the cells were counted (Makler chamber), and their motility determined (%). […] Thereafter, motility and cell density were determined once again, and the sample was divided into three equal portions, each to be subjected to appropriate treatment. […]

sperm cells = format: cell-based, human; settings: 200 micromoles per l
Protocol: Human sperm was from a donor with known fertility (No. 113). The sample (freshly taken) was allowed to liquefy, was diluted 3:1 with BWW/HSA, was centrifuged at 325×g for 5 minutes, and was washed once with the same medium. A small portion of the original sample was analyzed (computer-assisted sperm analysis) using the Cell-Soft package. The pellet of washed sperm cells was subjected to the swim-up procedure (1 ml of the medium was added for this purpose). The swim-up was collected (about 0.5 ml), the cells were counted (Makler chamber), and their motility determined (%). The volume of the sample was adjusted with the medium to give 10^7 cells per ml, and the samples were incubated overnight (18 hours) at 37° C. for capacitation. Thereafter, motility and cell density were determined once again, and the sample was divided into three equal portions, each to be subjected to appropriate treatment.
Equivalent volumes of ethanol and BWW/HSA were added to the two control portions of each cell type (vehicle control and untreated cells, respectively).

Q: With C=CCSSC=CC[S+]([O-])CC=C (stereo not drawn) [Ajoene, 4,5,9-trithiadodeca-1,6,11-triene-9-oxide] as the molecule, how does the IC50 (H9 cells) read?
A: The IC50 was ~0.05 µM.

Q: What about the IC50 (LFA-1 (ICAM-1)) of the same molecule?
A: Its IC50 is 10 µM.

Q: What about the IC50 [1] of the same molecule?
A: Its IC50 is ~0.005 µM.

Q: And the IC50 (HIV-1RF)?
A: Its IC50 is 25 µM.

Q: And the “Penetration (penetrated oocytes / total oocytes)” value [2]?
A: Its value is 0%.

Q: And the “toxicity or impaired cellular vitality (motility of sperm cells)” value (sperm cells)?
A: The value was “not associated with toxicity or impaired cellular vitality”.
